Data reported in patent US8980879B2 (AbbVie Inc., priority 2013, dated 2015).

How the values were obtained:
BRD4 (BDI_K57-E168) = target: T1, BRD4 (BDI_K57-E168) (Homo sapiens, UniProt O60885); experiment: TR-FRET bromodomain binding assay, BRD4 first bromodomain; details: His-tagged BD1, 100 nM Alexa647 probe; assay protocol D or F as given per row in c1; Ki calculated from IC50
T1 construct: BD1: amino acids K57-E168; made in house
Procedure: (§1) A time-resolved fluorescence resonance energy transfer (TR-FRET) assay was used to determine the affinities of compounds of the Examples listed in Table 1 for each bromodomain of BRD4. His-tagged first (BD1: amino acids K57-E168) and second (BD2: amino acids E352-E168) bromodomains of BRD4 were expressed and purified. An Alexa647-labeled BET-inhibitor was used as the fluorescent probe in the assay.
(§2) Compound dilution series were prepared in DMSO via an approximately 3-fold serial dilution from one of the following:
(§3) Assay method D: 500 μM-8.5 nM
(§4) Assay method E: 0.47 mM to 7.8 nM
(§5) Assay method F: 250 μM-4.2 nM
(§6) Assay method G: 0.047 mM to 0.78 nM
(§7) or 5-fold serial dilution from one of the following:
(§8) Assay method A: 2.5 mM-800 nM
(§9) Assay method B: 2.5 mM-797 nM
(§10) For Assay methods A, C, D, and F: Compounds were then diluted 6:100 in assay buffer (20 mM Sodium Phosphate, pH 6.0, 50 mM NaCl, 1 mM Ethylenediaminetetraacetic acid, 0.01% Triton X-100, 1 mM DL-Dithiothreitol) to yield 3× working solutions. Six microliters (μL) of the working solution was then transferred to white, low-volume assay plates (Costar #3673). A 1.5× assay mixture containing His-tagged bromodomain, Europium-conjugated anti-His antibody (Invitrogen PV5596) and the Alexa-647-conjugated probe molecule was also prepared. Twelve μL of this solution were added to the assay plate to reach a final volume of 18 μL.
(§11) For Assay methods B, E, and G: Compound dilutions were added directly into white, low-volume assay plates (Perkin Elmer Proxiplate 384 Plus#6008280) using a Labcyte Echo in conjunction with Labcyte Access and Thermo Multidrop CombinL robotics. Compounds were then suspended in eight microliters (μL) of assay buffer (20 mM Sodium Phosphate, pH 6.0, 50 mM NaCl, 1 mM Ethylenediaminetetraacetic acid disodium salt dihydrate, 0.01% Triton X-100, 1 mM DL-Dithiothreitol) containing His-tagged bromodomain, Europium-conjugated anti-His antibody (Invitrogen PV5596) and Alexa-647-conjugated probe.
(§12) The final concentration of 1× assay mixture for assay methods A, B, C, D, E, F, and G contains 2% DMSO, 8 nM His-tagged bromodomain, 1 nM Europium-conjugated anti-His-tag antibody and 100 nM or 30 nM probe (for BDI or BDII, respectively) and compound concentration in the range of: 50 μM-16 nM for method A, 49.02 μM-15.63 nM for method B, 25 μM-423 pM for method C, 10 μM-169 pM for method D, 9.19 μM 150 pM for method E, 5 μM-85 pM for method F, and 0.92 μM-15 pM for method G.
(§13) After a one-hour equilibration at room temperature, TR-FRET ratios were determined using an Envision multilabel plate reader (Ex 340, Em 495/520).
(§14) TR-FRET data were normalized to the means of 24 no-compound controls (“high”) and 8 controls containing 1 μM un-labeled probe (“low”). Percent inhibition was plotted as a function of compound concentration and the data were fit with the 4 parameter logistic equation to obtain IC50s Inhibition constants (Ki) were calculated from the IC50s, probe Kd and probe concentration. Typical Z′ values were between 0.65 and 0.75. The minimum significant ratio was determined to evaluate assay reproducibility (Eastwood et al., (2006) J Biomol Screen, 11: 253-261). The MSR was determined to be 2.03 for BDI and 1.93 for BDII, and a moving MSR (last six run MSR overtime) for both BDI and BDII was typically <3.

BRD4 (BDII_E352-M457) = target: T2, BRD4 (BDII_E352-M457) (Homo sapiens, UniProt O60885); experiment: TR-FRET bromodomain binding assay, BRD4 second bromodomain
T2 construct: protocol; made in house
Procedure: as §1, §2, §3, §4, §5, §6, §7, §8, §9, §10, §11, §12, §13, §14

[1] = tested on: breast cancer cell line MX-1; experiment: MX-1 cell line proliferation assay; assay type: cell-based; details: Homo sapiens, MX1; MX-1 cells, 3-day (72 h) proliferation, Cell Titer Glo; read-out: Cellular proliferation: EC50
Procedure: MX-1 Cell Line Proliferation Assay
The impact of compounds of the Examples on cancer cell proliferation was determined using the breast cancer cell line MX-1 (ATCC) in a 3-day proliferation assay and the data are reported in Table 1. MX-1 cells were maintained in RPMI 1640 medium (Sigma) supplemented with 10% FBS at 37 C.° and an atmosphere of 5% CO2. For compound testing, MX-1 cells were plated in 96-well black bottom plates at a density of 5000 cells/well in 90 μL of culture media and incubated at 37° overnight to allow cell adhesion and spreading. Compound dilution series were prepared in DMSO via a 3-fold serial dilution from 3 mM to 0.1 μM. The DMSO dilution series were then diluted 1:100 in phosphate buffered saline, and 10 μL of the resulted solution were added to the appropriate wells of the MX-1 cell plate. The final compound concentrations in the wells were 3, 1, 0.3, 0.1, 0.03, 0.01, 0.003, 0.001, 0.0003 and 0.0001 μM.
Luminescence readings from the Cell Titer Glo assay were normalized to the DMSO treated cells and analyzed using the GraphPad Prism software with sigmoidal curve fitting to obtain EC50s. The minimum significant ratio (MSR) was determined to evaluate assay reproducibility (Eastwood et al., (2006) J Biomol Screen, 11: 253-261). The overall MSR was determined to be 2.1 and a moving MSR (last six run MSR overtime) has been <2.

SMILES	Ki (BRD4 (BDI_K57-E168))	Ki (BRD4 (BDII_E352-M457))	EC50 [1]
Cn1cc2c3c(c[nH]c(=O)c31)CN(c1ccc(F)cc1)c1ccc(NS(=O)(=O)c3ccccc3)cc1-2 [Example 26]	0.27 nM	3.12 nM	9.48 nM
Cn1cc2c3c(c[nH]c(=O)c31)CN(c1ccc(F)cc1)c1ccc(NC(=O)Cc3cc(F)ccc3Cl)cc1-2 [Example 30]	3.53 nM	21.8 nM	51.2 nM
Cc1ncc(CC(=O)Nc2ccc3c(c2)-c2cn(C)c4c(=O)[nH]cc(c24)CN3c2ccc(F)cc2)s1 [Example 32]	1.37 nM	11.6 nM	12.3 nM
Cc1cc(CC(=O)Nc2ccc3c(c2)-c2cn(C)c4c(=O)[nH]cc(c24)CN3c2ccc(F)cc2)nn1C [Example 33]	1.49 nM	6.39 nM	17.4 nM
Cn1cc2c3c(c[nH]c(=O)c31)CN(c1ccc(F)cc1)c1ccc(NC(=O)CCCC(=O)Nc3ccccc3)cc1-2 [Example 34]	2.2 nM	24.9 nM	47.9 nM
Cc1cnc(C(=O)Nc2ccc3c(c2)-c2cn(C)c4c(=O)[nH]cc(c24)CN3c2ccc(F)cc2)cn1 [Example 35]	2.01 nM	18.9 nM	26.4 nM
CCn1ccc(CNc2ccc3c(c2)-c2cn(C)c4c(=O)[nH]cc(c24)CN3c2ccc(F)cc2)n1 [Example 37]	1.07 nM	7.42 nM	19 nM
Cc1cccc(CNc2ccc3c(c2)-c2cn(C)c4c(=O)[nH]cc(c24)CN3c2ccc(F)cc2)n1 [Example 40]	0.86 nM	7.27 nM	25.5 nM
Cc1cccnc1CNc1ccc2c(c1)-c1cn(C)c3c(=O)[nH]cc(c13)CN2c1ccc(F)cc1 [Example 43]	1.25 nM	6.49 nM	17.3 nM
Cn1cc2c3c(c[nH]c(=O)c31)CN(c1ccc(F)cc1)c1ccc(NC(=O)Nc3cccc(Oc4ccccc4)c3)cc1-2 [Example 44]	53.3 nM	> 408 nM	> 1000 nM
CN1CCN(CCC(=O)Nc2ccc3c(c2)-c2cn(C)c4c(=O)[nH]cc(c24)CN3c2ccc(F)cc2)CC1 [Example 47]	1.14 nM	13.3 nM	14.3 nM
Cn1cc2c3c(c[nH]c(=O)c31)CN(c1ccc(F)cc1)c1ccc(NC(=O)CCN3CCCCC3)cc1-2 [Example 48]	2.39 nM	19.5 nM	29.5 nM
Cn1cc2c3c(c[nH]c(=O)c31)CN(c1ccc(F)cc1)c1ccc(NC(=O)Cc3cc(F)ccc3Br)cc1-2 [Example 49]	2.74 nM	29.8 nM	65.1 nM
Cn1cc2c3c(c[nH]c(=O)c31)CN(c1ccc(F)cc1)c1ccc(NC(=O)Cc3cc(F)ccc3F)cc1-2 [Example 52]	2.76 nM	55.9 nM	55.9 nM

The remaining molecules from weak to strong by Ki (BRD4 (BDI_K57-E168)), led by results:

Ki (BRD4 (BDI_K57-E168))	Ki (BRD4 (BDII_E352-M457))	EC50 [1]	SMILES
5.94 nM	33.1 nM	63.7 nM	Cn1cc2c3c(c[nH]c(=O)c31)CN(c1ccc(F)cc1)c1ccc(NC(=O)Cc3cc(Cl)ccc3Cl)cc1-2 [Example 50]
2.07 nM	13.4 nM	9.83 nM	Cn1cncc1CNc1ccc2c(c1)-c1cn(C)c3c(=O)[nH]cc(c13)CN2c1ccc(F)cc1 [Example 42]
1.94 nM	12.3 nM	23.2 nM	Cn1cc2c3c(c[nH]c(=O)c31)CN(c1ccc(F)cc1)c1ccc(NCCCn3cccn3)cc1-2 [Example 39]
1.73 nM	12.5 nM	55.6 nM	COC(=O)CCCNc1ccc2c(c1)-c1cn(C)c3c(=O)[nH]cc(c13)CN2c1ccc(F)cc1 [Example 41]
1.52 nM	9.3 nM	9 nM	Cn1nccc1CNc1ccc2c(c1)-c1cn(C)c3c(=O)[nH]cc(c13)CN2c1ccc(F)cc1 [Example 38]
1.17 nM	8.21 nM	13.5 nM	Cn1cc(CC(=O)Nc2ccc3c(c2)-c2cn(C)c4c(=O)[nH]cc(c24)CN3c2ccc(F)cc2)cn1 [Example 28]
0.2 nM	1.73 nM	8.56 nM	CC(=O)Nc1ccc(S(=O)(=O)Nc2ccc3c(c2)-c2cn(C)c4c(=O)[nH]cc(c24)CN3c2ccc(F)cc2)cc1 [Example 27]
